# Assay results: ChEMBL document CHEMBL4673219, “Novel 5,6-disubstituted pyrrolo[2,3-d]pyrimidine derivatives as broad spectrum antiproliferative agents: Synthesis, cell based assays, kinase profile and molecular docking study” (Bioorg Med Chem, 2018)
# “And” between values parts separate entries of the source, which are not always exact repeats. Equal entries are not always repeated.
# Columns and labels:
# DU-145 = assay: Growth inhibition of human DU-145 cells assessed as growth percentage at 100 uM incubated for 48 hrs by sulforhodamine B assay relative to control; type: functional; conditions: read-out: Activity
# HT-29 = assay: Growth inhibition of human HT-29 cells assessed as growth percentage at 0.01 uM incubated for 48 hrs by sulforhodamine B assay relative to control; type: functional; conditions: read-out: Activity
# ACHN [1] = assay: Growth inhibition of human ACHN cells assessed as growth percentage at 1 uM incubated for 48 hrs by sulforhodamine B assay relative to control; type: functional; conditions: read-out: Activity
# HOP-92 = assay: Growth inhibition of human HOP-92 cells assessed as growth percentage at 100 uM incubated for 48 hrs by sulforhodamine B assay relative to control; type: functional; conditions: read-out: Activity
# NCI/ADR-RES = assay: Growth inhibition of human NCI/ADR-RES cells assessed as growth percentage at 10 uM incubated for 48 hrs by sulforhodamine B assay relative to control; type: functional; conditions: read-out: Activity
# NCI-H226 = assay: Growth inhibition of human NCI-H226 cells assessed as growth percentage at 0.1 uM incubated for 48 hrs by sulforhodamine B assay relative to control; type: functional; conditions: read-out: Activity
# OVCAR-4 [2] = assay: Growth inhibition of human OVCAR-4 cells assessed as growth percentage at 10 uM incubated for 48 hrs by sulforhodamine B assay relative to control; type: functional; conditions: read-out: Activity
# SK-MEL-2 [3] = assay: Growth inhibition of human SK-MEL-2 cells assessed as growth percentage at 1 uM incubated for 48 hrs by sulforhodamine B assay relative to control; type: functional; conditions: read-out: Activity
# MDA-MB-468 = assay: Growth inhibition of human MDA-MB-468 cells assessed as growth percent at 0.1 uM incubated for 48 hrs by sulforhodamine B assay relative to control; type: functional; conditions: read-out: Activity
# SF-539 [4] = assay: Growth inhibition of human SF-539 cells assessed as growth percentage at 1 uM incubated for 48 hrs by sulforhodamine B assay relative to control; type: functional; conditions: read-out: Activity
# HCC 2998 = assay: Growth inhibition of human HCC 2998 cells assessed as growth percentage at 1 uM incubated for 48 hrs by sulforhodamine B assay relative to control; type: functional; conditions: read-out: Activity
# COLO 205 = assay: Growth inhibition of human COLO 205 cells assessed as growth percentage at 10 uM incubated for 48 hrs by sulforhodamine B assay relative to control; type: functional; conditions: read-out: Activity
# U-251 [5] = assay: Growth inhibition of human U-251 cells assessed as growth percentage at 0.01 uM incubated for 48 hrs by sulforhodamine B assay relative to control; type: functional; conditions: read-out: Activity
# RPMI-8226 = assay: Growth inhibition of human RPMI-8226 cells assessed as growth percentage at 0.1 uM incubated for 48 hrs by sulforhodamine B assay relative to control; type: functional; conditions: read-out: Activity
# OVCAR-5 [6] = assay: Growth inhibition of human OVCAR-5 cells assessed as growth percentage at 1 uM incubated for 48 hrs by sulforhodamine B assay relative to control; type: functional; conditions: read-out: Activity
# U-251 [7] = assay: Growth inhibition of human U-251 cells incubated for 48 hrs by sulforhodamine B assay; type: functional; conditions: for CC50: read-out: LC50 (the source's name)
# UO-31 [8] = assay: Growth inhibition of human UO-31 cells assessed as growth percentage at 10 uM incubated for 48 hrs by sulforhodamine B assay relative to control; type: functional; conditions: read-out: Activity
# ACHN [9] = assay: Growth inhibition of human ACHN cells assessed as growth percentage at 0.1 uM incubated for 48 hrs by sulforhodamine B assay relative to control; type: functional; conditions: read-out: Activity
# SN12C = assay: Growth inhibition of human SN12C cells assessed as growth percentage at 10 uM incubated for 48 hrs by sulforhodamine B assay relative to control; type: functional; conditions: read-out: Activity
# SF-539 [10] = assay: Growth inhibition of human SF-539 cells assessed as growth percentage at 0.01 uM incubated for 48 hrs by sulforhodamine B assay relative to control; type: functional; conditions: read-out: Activity
# UO-31 [11] = assay: Growth inhibition of human UO-31 cells incubated for 48 hrs by sulforhodamine B assay; type: functional
# T47D = assay: Growth inhibition of human T47D cells assessed as growth percentage at 1 uM incubated for 48 hrs by sulforhodamine B assay relative to control; type: functional; conditions: read-out: Activity
# OVCAR-5 [12] = assay: Growth inhibition of human OVCAR-5 cells assessed as growth percentage at 10 uM incubated for 48 hrs by sulforhodamine B assay relative to control; type: functional; conditions: read-out: Activity
# NCI-H23 [13] = assay: Growth inhibition of human NCI-H23 cells incubated for 48 hrs by sulforhodamine B assay; type: functional
# IGROV-1 = assay: Growth inhibition of human IGROV-1 assessed as growth percent at 0.1 uM incubated for 48 hrs by sulforhodamine B assay relative to control; type: functional; conditions: read-out: Activity
# UACC-62 = assay: Growth inhibition of human UACC-62 cells assessed as growth percentage at 10 uM incubated for 48 hrs by sulforhodamine B assay relative to control; type: functional; conditions: read-out: Activity
# SK-MEL-2 [14] = assay: Growth inhibition of human SK-MEL-2 cells assessed as growth percentage at 100 uM incubated for 48 hrs by sulforhodamine B assay relative to control; type: functional; conditions: read-out: Activity
# Malme-3M = assay: Growth inhibition of human Malme-3M cells assessed as growth percentage at 1 uM incubated for 48 hrs by sulforhodamine B assay relative to control; type: functional; conditions: read-out: Activity
# OVCAR-4 [15] = assay: Growth inhibition of human OVCAR-4 cells incubated for 48 hrs by sulforhodamine B assay; type: functional; conditions: for CC50: read-out: LC50 (the source's name)
# OVCAR-8 = assay: Growth inhibition of human OVCAR-8 cells assessed as growth percentage at 10 uM incubated for 48 hrs by sulforhodamine B assay relative to control; type: functional; conditions: read-out: Activity
# ACHN [16] = assay: Growth inhibition of human ACHN cells assessed as growth percentage at 100 uM incubated for 48 hrs by sulforhodamine B assay relative to control; type: functional; conditions: read-out: Activity
# KM12 = assay: Growth inhibition of human KM12 cells assessed as growth percentage at 1 uM incubated for 48 hrs by sulforhodamine B assay relative to control; type: functional; conditions: read-out: Activity
# K562 = assay: Growth inhibition of human K562 cells assessed as growth percentage at 0.01 uM incubated for 48 hrs by sulforhodamine B assay relative to control; type: functional; conditions: read-out: Activity
# SNB-19 = assay: Growth inhibition of human SNB-19 cells incubated for 48 hrs by sulforhodamine B assay; type: functional
# ACHN [17] = assay: Growth inhibition of human ACHN cells assessed as growth percentage at 0.01 uM incubated for 48 hrs by sulforhodamine B assay relative to control; type: functional; conditions: read-out: Activity
# NCI-H322M = assay: Growth inhibition of human NCI-H322M cells assessed as growth percentage at 0.01 uM incubated for 48 hrs by sulforhodamine B assay relative to control; type: functional; conditions: read-out: Activity
# SK-MEL-2 [18] = assay: Growth inhibition of human SK-MEL-2 cells incubated for 48 hrs by sulforhodamine B assay; type: functional
# NCI-H23 [19] = assay: Growth inhibition of human NCI-H23 cells assessed as growth percentage at 1 uM incubated for 48 hrs by sulforhodamine B assay relative to control; type: functional; conditions: read-out: Activity
# [20] = Tmax in Sprague-Dawley rat at 10 mg/kg, po measured up to 24 hrs by LC-MS/MS analysis; type: ADME, organism-based; conditions: in vivo
smiles,measurement,setting,value
Nc1nc2[nH]c(CN3CCN(c4cc(Cl)cc(Cl)c4)CC3)c(CN3CCN(c4cc(Cl)cc(Cl)c4)CC3)c2c(=O)[nH]1,growth at 100 µM,DU-145,-92%
same,growth at 0.01 µM,HT-29,105%
same,growth at 1 µM,ACHN [1],98%
same,growth at 100 µM,HOP-92,-72%
same,growth at 10 µM,NCI/ADR-RES,87.6%
same,growth at 0.1 µM,NCI-H226,89%
same,growth at 10 µM,OVCAR-4 [2],65.8%
same,growth at 1 µM,SK-MEL-2 [3],114%
same,growth at 0.1 µM,MDA-MB-468,94%
same,growth at 1 µM,SF-539 [4],93%
same,growth at 1 µM,HCC 2998,93%
same,growth at 10 µM,COLO 205,10.9%
same,growth at 0.01 µM,U-251 [5],99%
same,growth at 0.1 µM,RPMI-8226,102%
same,growth at 1 µM,OVCAR-5 [6],89%
same,GI50,"U-251 [7]; Homo sapiens, U-251, 48 h",1670 nM
same,TGI,"U-251 [7]; Homo sapiens, U-251, 48 h",3140 nM
same,CC50,"U-251 [7]; Homo sapiens, U-251, 48 h",5900 nM
same,growth at 10 µM,UO-31 [8],75.1%
same,growth at 0.1 µM,ACHN [9],98%
same,growth at 10 µM,SN12C,73.1%
same,growth at 0.01 µM,SF-539 [10],89%
same,GI50,UO-31 [11]; 48 h,1170 nM and 11700 nM
same,TGI,UO-31 [11]; 48 h,31800 nM and 3180 nM
same,growth at 1 µM,T47D,85%
same,growth at 10 µM,OVCAR-5 [12],92.2%
same,GI50,NCI-H23 [13],2030 nM
same,TGI,NCI-H23 [13],3960 nM
same,growth at 0.1 µM,IGROV-1,105%
same,growth at 10 µM,UACC-62,77.8%
same,growth at 100 µM,SK-MEL-2 [14],-48%
same,growth at 1 µM,Malme-3M,101%
same,GI50,OVCAR-4 [15],1580 nM
same,TGI,OVCAR-4 [15],3150 nM
same,CC50,OVCAR-4 [15],6250 nM
same,growth at 10 µM,OVCAR-8,40.6%
same,growth at 100 µM,ACHN [16],-26%
same,growth at 1 µM,KM12,99%
same,growth at 0.01 µM,K562,108%
same,GI50,SNB-19,1770 nM
same,TGI,SNB-19,3670 nM
same,growth at 0.01 µM,ACHN [17],94%
same,growth at 0.01 µM,NCI-H322M,102%
same,GI50,"SK-MEL-2 [18]; Homo sapiens, SK-MEL-2, 48 h",2210 nM
same,TGI,"SK-MEL-2 [18]; Homo sapiens, SK-MEL-2, 48 h",4120 nM
same,growth at 1 µM,NCI-H23 [19],103%
CCCCCCCC(=O)Nc1nc2[nH]c(CN3CCN(Cc4cccc(F)c4)CC3)c(CN3CCN(Cc4cccc(F)c4)CC3)c2c(=O)[nH]1,growth at 100 µM,DU-145,-83%
same,growth at 0.01 µM,HT-29,96%
same,growth at 100 µM,HOP-92,-95%
same,growth at 10 µM,NCI/ADR-RES,-66.1%
same,growth at 0.1 µM,NCI-H226,95%
same,growth at 10 µM,OVCAR-4 [2],-94%
same,growth at 0.1 µM,MDA-MB-468,95%
same,Tmax,[20],2.25 h
same,growth at 1 µM,HCC 2998,-33%
same,growth at 10 µM,COLO 205,-90.9%
same,growth at 0.01 µM,U-251 [5],97%
same,growth at 0.1 µM,RPMI-8226,97%
same,GI50,U-251 [7]; 48 h,170 nM
same,TGI,U-251 [7]; 48 h,330 nM
same,CC50,U-251 [7]; 48 h,610 nM
same,GI50,"U-251 [7]; Homo sapiens, U-251, 48 h",172 nM
same,TGI,"U-251 [7]; Homo sapiens, U-251, 48 h",325 nM
same,CC50,"U-251 [7]; Homo sapiens, U-251, 48 h",614 nM
same,growth at 10 µM,UO-31 [8],-96.5%
same,growth at 10 µM,SN12C,-90.6%
same,GI50,UO-31 [11]; 48 h,3800 nM and 380 nM
same,LC50 (concentration killing 50% of cells),"UO-31 [11]; Homo sapiens, UO-31",4810 nM
same,TGI,"UO-31 [11]; Homo sapiens, UO-31, 48 h",1700 nM
same,growth at 1 µM,T47D,80%
same,GI50,NCI-H23 [13],1860 nM
same,LC50 (50% lethal concentration),NCI-H23 [13],8020 nM
same,TGI,NCI-H23 [13],3860 nM
same,growth at 0.1 µM,IGROV-1,95%
same,growth at 10 µM,UACC-62,-93.9%
same,growth at 1 µM,Malme-3M,40%
same,GI50,OVCAR-4 [15],1210 nM
same,TGI,OVCAR-4 [15],2540 nM
same,CC50,OVCAR-4 [15],5310 nM
same,growth at 10 µM,OVCAR-8,-77.7%
same,growth at 1 µM,KM12,43%
same,growth at 0.01 µM,K562,102%
same,GI50,SNB-19,1560 nM
same,LC50 (concentration killing 50% of cells),SNB-19,6340 nM
same,TGI,SNB-19,3140 nM
same,growth at 0.01 µM,NCI-H322M,94%
same,GI50,SK-MEL-2 [18]; 48 h,1570 nM
same,TGI,SK-MEL-2 [18]; 48 h,3030 nM
same,GI50,"SK-MEL-2 [18]; Homo sapiens, SK-MEL-2, 48 h",2210 nM
same,TGI,"SK-MEL-2 [18]; Homo sapiens, SK-MEL-2, 48 h",4120 nM
same,CC50,"SK-MEL-2 [18]; Homo sapiens, SK-MEL-2, read-out: LC50 (the source's name)",5870 nM
same,growth at 1 µM,NCI-H23 [19],92%
